Calls of active or inactive are those of the source. The calls are words filed in the database; no cut-off is given here.

A word on the inhibition: it is the drop in the measured response relative to a control, in per cent.

Test system in the first series: not listed separately
Kind of series: Antioxidant activity assessed as trolox equivalent of AAPH-induced radical scavenging activity incubated for 10 mins prior to APPH challenge measured every minute for 120 mins by ORAC assay. In kind it is functional.
As to `CN(C)c1ccccc1/C=C/c1cc(O)cc(O)c1`, the Activity was 2.05 equiv.
On the same count and under the same terms, the same measure for `CC(C)(C)c1ccc(/C=C/c2cc(O)cc(O)c2)cc1`: 1.28 equiv.
As to `CCCNc1ccc(/C=C/c2cc(O)cc(O)c2)cc1`, the Activity was determined as 4.33 equiv.
As for `Oc1cc(O)cc(/C=C/c2ccc(Br)cc2)c1`, the Activity stood at 2.33 equiv.
Take `CNc1ccc(/C=C/c2cc(O)cc(O)c2)cc1`: the Activity was 5.54 equiv.
In the case of `CN(C)c1ccc(CCc2cc(O)cc(O)c2)cc1`, the Activity stood at 5.21 equiv.
Same read-out and setting: the same measure for `Oc1cc(O)cc(/C=C/c2ccc(NC3CCCCC3)cc2)c1`: 2.25 equiv.
As for `CCNc1ccc(/C=C/c2cc(O)cc(O)c2)cc1`, the Activity was 5.19 equiv.
In the case of `COc1cc(/C=C/c2ccc(N(C)C)cc2)cc(OC)c1`, the Activity worked out at 3.46 equiv.
For the compound `CCCN(CCC)c1ccc(/C=C/c2cc(O)cc(O)c2)cc1`, the Activity came to 2.37 equiv.
On the same count and under the same terms, the same measure for `Oc1cc(O)cc(/C=C/c2ccncc2)c1`: 1.71 equiv; for `Oc1cc(O)cc(/C=C/c2ccc(NC3CCCC3)cc2)c1`: 3.37 equiv; for `CN(C)c1ccc(/C=C/c2cc(O)cc(O)c2)cc1`: 4.7 equiv.
On to `CC(C)Nc1ccc(/C=C/c2cc(O)cc(O)c2)cc1`, for which the Activity came out at 4.12 equiv.
As for `CN(C)c1cccc(/C=C/c2cc(O)cc(O)c2)c1`, the Activity worked out at 3.93 equiv.
As for `CCN(CC)c1ccc(/C=C/c2cc(O)cc(O)c2)cc1`, the Activity was determined as 3.31 equiv.

The test system of the next series is SH-SY5Y. Briefly: Neuroprotective activity in human SH-SY5Y cells assessed as decrease in tertiary butylhydroperoxide-induced radical formation at 10 uM incubated for 24 hrs prior to tertiary butylhydroperoxide challenge measured after 30 mins by DCFH-DA staining-based fluorescence assay. In kind it is functional. On the set-up: scale not given: the % may be the effect or the level left.
On to `CC(C)Nc1ccc(/C=C/c2cc(O)cc(O)c2)cc1`, for which the Activity worked out at 37%.

Test system in a further series: not listed separately
Briefly: Inhibition of amyloid beta (1-42) aggregation at 20 uM after 48 hrs by thioflavin T fluorescence method relative to control.
Compound `CN(C)c1ccccc1/C=C/c1cc(O)cc(O)c1` displayed an inhibition of 59.4%.
`CC(C)(C)c1ccc(/C=C/c2cc(O)cc(O)c2)cc1` had an inhibition of 43.6%.
Regarding `CCCNc1ccc(/C=C/c2cc(O)cc(O)c2)cc1`, the inhibition stood at 66.7%.
Compound `Oc1cc(O)cc(/C=C/c2ccc(Br)cc2)c1` yielded an inhibition of 25.2%.
`CNc1ccc(/C=C/c2cc(O)cc(O)c2)cc1` displayed an inhibition of 63.7%.
As to `CN(C)c1ccc(CCc2cc(O)cc(O)c2)cc1`, the inhibition worked out at 48.5%.
`Oc1cc(O)cc(/C=C/c2ccc(NC3CCCCC3)cc2)c1`: the inhibition was determined as 65.5%.
As for `CCNc1ccc(/C=C/c2cc(O)cc(O)c2)cc1`, the inhibition worked out at 68.6%.
Regarding `COc1cc(/C=C/c2ccc(N(C)C)cc2)cc(OC)c1`, the inhibition stood at 7.02%.
`CCCN(CCC)c1ccc(/C=C/c2cc(O)cc(O)c2)cc1` gave an inhibition of 69%.
Take `Oc1cc(O)cc(/C=C/c2ccncc2)c1`: the inhibition came to 13.6%.
Take `Oc1cc(O)cc(/C=C/c2ccc(NC3CCCC3)cc2)c1`: the inhibition amounted to 68.7%.
In turn, `CN(C)c1ccc(/C=C/c2cc(O)cc(O)c2)cc1` showed an inhibition of 65.2%.
`CC(C)Nc1ccc(/C=C/c2cc(O)cc(O)c2)cc1`: the inhibition was 71.7%.
For `CN(C)c1cccc(/C=C/c2cc(O)cc(O)c2)c1`, the inhibition stood at 61.5%.
Compound `Oc1ccc(/C=C/c2cc(O)cc(O)c2)cc1` [RESVERATROL] registered an inhibition of 69.7%.
`CCN(CC)c1ccc(/C=C/c2cc(O)cc(O)c2)cc1` registered an inhibition of 64.8%.

Test system in the next series: not listed separately
Kind of series: Inhibition of amyloid beta (1-42) aggregation at 20 uM after 24 hrs by transmission electron microscopy.
Turning to `CC(C)Nc1ccc(/C=C/c2cc(O)cc(O)c2)cc1`, the inhibition entry is “Active”.
The same measure, in the same setting: in the case of `Oc1ccc(/C=C/c2cc(O)cc(O)c2)cc1` [RESVERATROL] it was “Active”.

For a further series, the system named is SH-SY5Y. Kind of series: Cytotoxicity against human SH-SY5Y cells assessed as cell viability at 25 uM after 48 hrs by MTT assay. It counts as cell-based.
Regarding `CCNc1ccc(/C=C/c2cc(O)cc(O)c2)cc1`, the Activity result is “Toxic”.

The subject of another series is SH-SY5Y. Briefly: Neuroprotective activity in human SH-SY5Y cells assessed as decrease in tertiary butylhydroperoxide-induced radical formation incubated for 24 hrs prior to tertiary butylhydroperoxide challenge measured after 30 mins by DCFH-DA staining-based fluorescence assay. It counts as functional, cell-based.
In the case of `CNc1ccc(/C=C/c2cc(O)cc(O)c2)cc1`, the Activity result was “Dose-dependent effect”.
With `CCNc1ccc(/C=C/c2cc(O)cc(O)c2)cc1`, the Activity result is “Dose-dependent effect”.
Take `CC(C)Nc1ccc(/C=C/c2cc(O)cc(O)c2)cc1`: the Activity result is “Dose-dependent effect”.
Take `Oc1ccc(/C=C/c2cc(O)cc(O)c2)cc1` [RESVERATROL]: the Activity entry is “Dose-dependent effect”.

Another series deals with SH-SY5Y. Kind of series: Cytotoxicity against human SH-SY5Y cells assessed as cell viability at 60 uM after 48 hrs by MTT assay. In kind it is cell-based. (Formazan colour is commonly taken as a measure of viable cells.)
`Oc1ccc(/C=C/c2cc(O)cc(O)c2)cc1` [RESVERATROL]: the Activity result is “Toxic”.

Another series has as its system SH-SY5Y. Kind of series: Cytotoxicity against human SH-SY5Y cells assessed as cell viability at 12.5 to 25 uM after 48 hrs by MTT assay. In kind it is cell-based.
In the case of `CNc1ccc(/C=C/c2cc(O)cc(O)c2)cc1`, the Activity entry is “Non-toxic”.
Same read-out and setting: in the case of `CN(C)c1ccc(/C=C/c2cc(O)cc(O)c2)cc1` it was “Non-toxic”.
Turning to `CC(C)Nc1ccc(/C=C/c2cc(O)cc(O)c2)cc1`, the Activity entry was “Non-toxic”.

These data come from ChEMBL document CHEMBL2203074 (Bioorg Med Chem Lett, 2012).
